Measurements taken from US20210215714A1, “COMPLEMENT ALTERNATIVE PATHWAY-ASSOCIATED NEPHROPATHY BIOMARKERS” (Achillion Pharmaceuticals, Inc., priority 2018, published 2021).

System: sC5b-9
Experiment: Phase 2a study: urinary sC5b-9 (MicroVue sC5b-9 Enzyme Immunoassay);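 note: urine from C3 glomerulopathy or IC-MPGN patients, sandwich ELISA capturing sC5b-9 via C9-ring monoclonal with HRP detection read at 450 nm, values raw or normalized to creatinine or albumin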
[1] = Patient A, 100 mg TID, Day 1/0 Hour
[2] = Patient A, 100 mg TID, Day 7/0 Hour
[3] = Patient A, 100 mg TID, Day 15 Taper
[4] = Patient A, 100 mg TID, Day 16 Taper
[5] = Patient A, 100 mg TID, Day 17 Taper
[6] = Patient A, 100 mg TID, Day 21 Taper
[7] = Patient A, 100 mg TID, Follow-Up Day 24
[8] = Patient A, 100 mg TID, Follow-Up Day 28
[9] = Patient A, 100 mg TID, Follow-Up Day 49
[10] = Patient B, 100 mg TID, Day 1/0 Hour
[11] = Patient B, 100 mg TID, Day 7/0 Hour
[12] = Patient B, 100 mg TID, Day 15 Taper
[13] = Patient B, 100 mg TID, Day 16 Taper
[14] = Patient B, 100 mg TID, Day 17 Taper
[15] = Patient B, 100 mg TID, Day 21 Taper
[16] = Patient B, 100 mg TID, Follow-Up Day 24
[17] = Patient B, 100 mg TID, Follow-Up Day 28
[18] = Patient B, 100 mg TID, Follow-Up Day 49
[19] = Patient C, 200 mg TID, Day 1/0 Hour
[20] = Patient C, 200 mg TID, Day 7/0 Hour
[21] = Patient C, 200 mg TID, Day 15 Taper
[22] = Patient C, 200 mg TID, Day 16 Taper
[23] = Patient C, 200 mg TID, Day 17 Taper
[24] = Patient C, 200 mg TID, Day 21 Taper
[25] = Patient C, 200 mg TID, Follow-Up Day 24
[26] = Patient C, 200 mg TID, Follow-Up Day 28
[27] = Patient C, 200 mg TID, Follow-Up Day 49
[28] = Patient C, 200 mg TID, Screen 1
[29] = Patient D, 200 mg TID, Day 1/0 Hour
[30] = Patient D, 200 mg TID, Day 7/0 Hour
[31] = Patient D, 200 mg TID, Day 15 Taper
[32] = Patient D, 200 mg TID, Day 17 Taper

Text: 10 patients with either C3 Glomerulopathy (C3G) or Immune-Complex Membranoproliferative Glomerulonephritis (IC-MPGN) are to be enrolled across two dose groups. […] Inclusion criteria include a clinical diagnosis of C3G (C3 glomerulonephritis [C3GN] or dense deposit disease [DDD], the 2 types of C3G) or idiopathic immune-complex membranoproliferative glomerulonephritis (IC-MPGN) by renal biopsy for at least 3 months prior to dosing, with the pathologic diagnosis verified by review of the renal biopsy by the study central pathologist. Patients must have low C3 levels (<50% of the lower limit of normal) and normal or near-normal C4 levels (>90% of the lower limit of normal).
To measure urinary sC5b-9 production, patient urine samples were tested utilizing the MicroVue sC5b-9 Enzyme Immunoassay for the quantitation of sC5b-9 in urine. […] The samples were tested utilizing the MicroVue sC5b-9 Enzyme Immunoassay for the quantitation of sC5b-9 urine, which is a three-step procedure utilizing a micro-assay plate coated with a mouse monoclonal antibody that binds specifically to the C9 ring of sC5b-9, HRP-conjugated antibodies to antigens of sC5b-9, and a chromogenic substrate. In step 1, standards, controls, and test specimens are added to micro-assay wells pre-coated with an anti-sC5b-9 specific monoclonal antibody. sC5b-9 present in the Standards, Controls, or specimens will bind to the immobilized sC5b-9 monoclonal antibody. After incubation, a wash cycle removes unbound material. […] In step 2, horseradish peroxidase (HRP)-conjugated antibodies to antigens of sC5b-9 are added to each test well. The enzyme conjugated antibodies bind to sC5b-9 that was captured by the monoclonal anti-sC5b-9 bound on the surface of the micro-assay wells. After incubation, a wash cycle removes unbound, excess conjugate. In step 3, a chromogenic enzyme substrate is added to each micro-assay well. The bound HRP-conjugate reacts with the substrate, forming a blue color. After incubation the enzyme reaction is stopped chemically, the color changes to yellow, and the color intensity is measured spectrophotometrically at 450 nm. The color intensity of the reaction mixture is proportional to the concentration of sC5b-9 present in the test specimens, standards, and controls. […] Measurements of urinary biomarkers are typically normalized to urine creatinine or albumin levels to account for variation in biomarker levels due to changes in urinary filtration rate.

## CC(=O)c1nn(CC(=O)N2C[C@H](F)C[C@H]2C(=O)Nc2cccc(Br)n2)c2ccc(-c3cnc(C)nc3)cc12 [Compound 1, (2S,4R)-1-(2-(3-acetyl-5-(2-methylpyrimidin-5-yl)-1H-indazol-1-yl)acetyl)-N-(6-bromopyridin-2-yl)-4-fluoropyrrolidine-2-carboxamide]
[1]
  sC5b-9/ALB: 38 ng/mg
  sC5b-9/Cr: 9.9 µg/mmol
Patient A, 100 mg TID, Day 1 predose
  Urine sC5b-9: 81.2 ng/mL
Patient A, 100 mg TID, Day 4
  Urine sC5b-9: 84.2 ng/mL
  sC5b-9/ALB: 48 ng/mg
  sC5b-9/Cr: 10.5 µg/mmol
Patient A, 100 mg TID, Day 7
  Urine sC5b-9: 70.4 ng/mL
[2]
  sC5b-9/ALB: 46 ng/mg
  sC5b-9/Cr: 10.7 µg/mmol
Patient A, 100 mg TID, Day 10
  Urine sC5b-9: 52.0 ng/mL
  sC5b-9/ALB: 37 ng/mg
  sC5b-9/Cr: 8.4 µg/mmol
[3]
  Urine sC5b-9: 56.9 ng/mL
  sC5b-9/ALB: 54 ng/mg
  sC5b-9/Cr: 7.8 µg/mmol
[4]
  Urine sC5b-9: 66.2 ng/mL
  sC5b-9/ALB: 62 ng/mg
  sC5b-9/Cr: 8.8 µg/mmol
[5]
  Urine sC5b-9: 84.4 ng/mL
  sC5b-9/ALB: 74 ng/mg
  sC5b-9/Cr: 8.5 µg/mmol
[6]
  Urine sC5b-9: 85.8 ng/mL
  sC5b-9/ALB: 70 ng/mg
  sC5b-9/Cr: 9.9 µg/mmol
[7]
  Urine sC5b-9: 95.0 ng/mL
  sC5b-9/ALB: 69 ng/mg
  sC5b-9/Cr: 9.5 µg/mmol
[8]
  Urine sC5b-9: 79.7 ng/mL
  sC5b-9/ALB: 61 ng/mg
  sC5b-9/Cr: 8.0 µg/mmol
[9]
  Urine sC5b-9: 57.5 ng/mL
  sC5b-9/ALB: 92 ng/mg
  sC5b-9/Cr: 13.4 µg/mmol
Patient A, 100 mg TID, Screen
  Urine sC5b-9: 76.3 ng/mL
  sC5b-9/ALB: 40 ng/mg
  sC5b-9/Cr: 9.2 µg/mmol
[10]
  sC5b-9/ALB: 1500 ng/mg
  sC5b-9/Cr: 866 µg/mmol
Patient B, 100 mg TID, Day 1 predose
  Urine sC5b-9: 5280 ng/mL
Patient B, 100 mg TID, Day 4
  Urine sC5b-9: 2139 ng/mL
  sC5b-9/ALB: 637 ng/mg
  sC5b-9/Cr: 168 µg/mmol
Patient B, 100 mg TID, Day 7
  Urine sC5b-9: 2266 ng/mL
[11]
  sC5b-9/ALB: 624 ng/mg
  sC5b-9/Cr: 155 µg/mmol
Patient B, 100 mg TID, Day 10
  Urine sC5b-9: 1073 ng/mL
  sC5b-9/ALB: 563 ng/mg
  sC5b-9/Cr: 143 µg/mmol
Patient B, 100 mg TID, Day 14
  Urine sC5b-9: 4010 ng/mL
  sC5b-9/ALB: 911 ng/mg
  sC5b-9/Cr: 240 µg/mmol
[12]
  Urine sC5b-9: 3334 ng/mL
  sC5b-9/ALB: 929 ng/mg
  sC5b-9/Cr: 303 µg/mmol
[13]
  Urine sC5b-9: 4784 ng/mL
  sC5b-9/ALB: 1154 ng/mg
  sC5b-9/Cr: 380 µg/mmol
[14]
  Urine sC5b-9: 2693 ng/mL
  sC5b-9/ALB: 907 ng/mg
  sC5b-9/Cr: 238 µg/mmol
[15]
  Urine sC5b-9: 2469 ng/mL
  sC5b-9/ALB: 821 ng/mg
  sC5b-9/Cr: 305 µg/mmol
[16]
  Urine sC5b-9: 3958 ng/mL
  sC5b-9/ALB: 1380 ng/mg
  sC5b-9/Cr: 649 µg/mmol
[17]
  Urine sC5b-9: 2376 ng/mL
  sC5b-9/ALB: 882 ng/mg
  sC5b-9/Cr: 335 µg/mmol
[18]
  Urine sC5b-9: 14132 ng/mL
  sC5b-9/ALB: 6312 ng/mg
  sC5b-9/Cr: 883 µg/mmol
Patient B, 100 mg TID, Screen
  Urine sC5b-9: 2598 ng/mL
  sC5b-9/ALB: 724 ng/mg
  sC5b-9/Cr: 351 µg/mmol
[19]
  sC5b-9/ALB: 203 ng/mg
  sC5b-9/Cr: 11.9 µg/mmol
Patient C, 200 mg TID, Day 1 predose
  Urine sC5b-9: 21.5 ng/mL
Patient C, 200 mg TID, Day 4
  Urine sC5b-9: <8.8 ng/mL
  sC5b-9/ALB: 173 ng/mg
  sC5b-9/Cr: 4.63 µg/mmol
Patient C, 200 mg TID, Day 7
  Urine sC5b-9: <8.8 ng/mL
[20]
  sC5b-9/ALB: 110 ng/mg
  sC5b-9/Cr: 2.38 µg/mmol
Patient C, 200 mg TID, Day 10
  Urine sC5b-9: <8.8 ng/mL
  sC5b-9/ALB: 160 ng/mg
  sC5b-9/Cr: 5.50 µg/mmol
Patient C, 200 mg TID, Day 14
  Urine sC5b-9: <8.8 ng/mL
  sC5b-9/ALB: 220 ng/mg
  sC5b-9/Cr: 6.77 µg/mmol
[21]
  Urine sC5b-9: <8.8 ng/mL
  sC5b-9/ALB: 131 ng/mg
  sC5b-9/Cr: 5.87 µg/mmol
[22]
  Urine sC5b-9: <8.8 ng/mL
  sC5b-9/ALB: 176 ng/mg
  sC5b-9/Cr: 4.63 µg/mmol
[23]
  Urine sC5b-9: <8.8 ng/mL
  sC5b-9/ALB: 126 ng/mg
  sC5b-9/Cr: 4.00 µg/mmol
[24]
  Urine sC5b-9: 10.3 ng/mL
  sC5b-9/ALB: 158 ng/mg
  sC5b-9/Cr: 3.67 µg/mmol
[25]
  Urine sC5b-9: 11.0 ng/mL
  sC5b-9/ALB: 186 ng/mg
  sC5b-9/Cr: 6.11 µg/mmol
[26]
  Urine sC5b-9: 21.2 ng/mL
  sC5b-9/ALB: 154 ng/mg
  sC5b-9/Cr: 7.32 µg/mmol
[27]
  Urine sC5b-9: 14.0 ng/mL
  sC5b-9/ALB: 149 ng/mg
  sC5b-9/Cr: 3.04 µg/mmol
Patient C, 200 mg TID, Screen
  Urine sC5b-9: 32.1 ng/mL
  sC5b-9/ALB: 387 ng/mg
  sC5b-9/Cr: 16.9 µg/mmol
[28]
  Urine sC5b-9: 57.4 ng/mL
  sC5b-9/ALB: 422 ng/mg
  sC5b-9/Cr: 52.2 µg/mmol
[29]
  sC5b-9/ALB: 22 ng/mg
  sC5b-9/Cr: 4.8 µg/mmol
Patient D, 200 mg TID, Day 1 predose
  Urine sC5b-9: 28.1 ng/mL
Patient D, 200 mg TID, Day 4
  Urine sC5b-9: 18.5 ng/mL
  sC5b-9/ALB: 15 ng/mg
  sC5b-9/Cr: 4.1 µg/mmol
Patient D, 200 mg TID, Day 7
  Urine sC5b-9: 15.8 ng/mL
[30]
  sC5b-9/ALB: 43 ng/mg
  sC5b-9/Cr: 14.3 µg/mmol
Patient D, 200 mg TID, Day 10
  Urine sC5b-9: 8.9 ng/mL
  sC5b-9/ALB: 14 ng/mg
  sC5b-9/Cr: 8.9 µg/mmol
Patient D, 200 mg TID, Day 14
  Urine sC5b-9: 12.0 ng/mL
  sC5b-9/ALB: 13 ng/mg
  sC5b-9/Cr: 3.9 µg/mmol
[31]
  Urine sC5b-9: 20.3 ng/mL
  sC5b-9/ALB: 10 ng/mg
  sC5b-9/Cr: 4.8 µg/mmol
[32]
  Urine sC5b-9: 15.3 ng/mL
  sC5b-9/ALB: 9 ng/mg
  sC5b-9/Cr: 5.3 µg/mmol
